The values that follow come from PubChem BioAssay (NCI).

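Values below derive from 48-hour exposures of cells grown in 96-well plates, with endpoints linearly interpolated between the two concentrations bracketing the appropriate inhibition level. GI50 is the concentration that inhibits growth by half. The concentration for full growth arrest is given as TGI.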

Test systems include SF-268 CNS; IGROV1 ovarian; TK-10 renal; 786-0 renal; ACHN renal; NCI/ADR-RES ovarian; U251 CNS; NCI-H23 lung; MOLT-4 leukemia; SNB-75 CNS.
Assay in all cases: NCI tumour cell line growth inhibition, 48 h

For `CCCCCCCN(CCCCCCC)C(=N)c1ccnc2ccccc12`, the GI50 with SF-268 CNS was 1.48 µM; in the assay on IGROV1 ovarian it was 1.6 µM; in the assay on TK-10 renal, 1.51 µM; with 786-0 renal, 1.55 µM; in the assay with ACHN renal it was 1.62 µM; in the assay on NCI/ADR-RES ovarian, 1.54 µM. In addition, the GI50 with U251 CNS is 1.66 µM; with NCI-H23 lung, 1.54 µM; with MOLT-4 leukemia, 1.7 µM; in the assay with SNB-75 CNS, 1.2 µM. Moreover, the TGI in the assay with SF-268 CNS is 3.03 µM; in the assay on IGROV1 ovarian it was 3.37 µM; in the assay with TK-10 renal, 2.97 µM; with 786-0 renal, 2.97 µM; in the assay on ACHN renal, 3.07 µM; in the assay with NCI/ADR-RES ovarian, 2.96 µM. Further, the TGI came out at 3.11 µM in the assay on U251 CNS, 3.08 µM in the assay with NCI-H23 lung, 4.4 µM in the assay on MOLT-4 leukemia and 2.77 µM with SNB-75 CNS.

For the compound `Cc1cn(CCC(N)C(=O)O)c(=O)[nH]c1=O` (stereo not drawn), the TGI with SF-268 CNS, with IGROV1 ovarian, in the assay with TK-10 renal, in the assay with 786-0 renal, in the assay on ACHN renal and in the assay on NCI/ADR-RES ovarian was over 100 µM each time. In addition, the TGI with U251 CNS, with NCI-H23 lung, in the assay with MOLT-4 leukemia and in the assay on SNB-75 CNS was over 100 µM in each case.

With `CC(CN(C)C)S(=O)(=O)c1ccc(-c2cnc(N)c(C(=O)Nc3ccccc3)n2)cc1` (stereo not drawn), the GI50 in the assay on SF-268 CNS was 6.8 µM; in the assay on IGROV1 ovarian it was 3.15 µM; with TK-10 renal, 11.5 µM; with 786-0 renal, 2.37 µM; in the assay with ACHN renal, 1.35 µM; with NCI/ADR-RES ovarian it was 5.2 µM. The GI50 in the assay with U251 CNS is 4.17 µM; in the assay on NCI-H23 lung it was 3.05 µM; in the assay with MOLT-4 leukemia, 3.15 µM; in the assay on SNB-75 CNS, 2.58 µM. Also, the TGI with SF-268 CNS is 39.8 µM; in the assay on IGROV1 ovarian, 36 µM; in the assay on TK-10 renal, over 57.2 µM; in the assay with 786-0 renal, 15.2 µM; in the assay on ACHN renal, 16.9 µM; with NCI/ADR-RES ovarian it was over 100 µM. For the same compound, the TGI in the assay with U251 CNS was found to be 30 µM; in the assay on NCI-H23 lung, 24.7 µM; in the assay on MOLT-4 leukemia, 14.2 µM; with SNB-75 CNS, 35.5 µM.

Turning to `COc1ccc(C(C#N)=C2C=CC(=NO)C=C2)cc1`, the GI50 in the assay on SF-268 CNS was 3.81 µM; in the assay with IGROV1 ovarian, 2.8 µM; in the assay on TK-10 renal it was 3.87 µM; in the assay with 786-0 renal, 4.95 µM; in the assay on ACHN renal it was 8.63 µM; in the assay with NCI/ADR-RES ovarian it was 3.38 µM. The GI50 in the assay with U251 CNS is 6.46 µM; with NCI-H23 lung, 12.8 µM; in the assay on MOLT-4 leukemia it was 4.58 µM; in the assay on SNB-75 CNS it was 5.3 µM. In addition, the TGI was found to be 14.2 µM in the assay on SF-268 CNS; 8 µM with IGROV1 ovarian; 8.72 µM with TK-10 renal; 15.3 µM in the assay on 786-0 renal; 21.1 µM in the assay with ACHN renal; 13.3 µM with NCI/ADR-RES ovarian. Besides, the TGI with U251 CNS is 19.4 µM; in the assay on NCI-H23 lung, 26.3 µM; in the assay with MOLT-4 leukemia, over 100 µM; in the assay on SNB-75 CNS, 18.9 µM.

Take `Cc1c(N)nc([C@H](CC(N)=O)NC[C@H](N)C(N)=O)nc1C(=O)N[C@H](C(=O)N[C@H](C)[C@@H](O)CC(=O)N[C@H](C(=O)NC(O[C@@H]1O[C@@H](C)[C@@H](N)[C@@H](O)[C@H]1O)C(O)c1nc(-c2nc(C(=O)NCCCCN)cs2)cs1)[C@@H](C)O)[C@@H](O[C@@H]1O[C@@H](CO)[C@@H](O)[C@H](O)[C@@H]1O[C@H]1O[C@H](CO)[C@@H](O)[C@H](OC(N)=O)[C@@H]1O)c1c[nH]cn1` (stereo partly drawn): the TGI in the assay with SF-268 CNS, in the assay with IGROV1 ovarian, in the assay on TK-10 renal, in the assay on 786-0 renal, in the assay with ACHN renal and in the assay with NCI/ADR-RES ovarian was over 50 µM in each case. Further, the TGI with U251 CNS, with NCI-H23 lung, in the assay with MOLT-4 leukemia and with SNB-75 CNS was over 50 µM in each case.

`O=P(O)(O)OCC1OC(n2cnc3c(NCc4ccco4)ncnc32)C(O)C1O` (stereo not drawn): the GI50 is 3.62 µM in the assay with SF-268 CNS; 1.39 µM in the assay on IGROV1 ovarian; 1.77 µM in the assay on TK-10 renal; 3.35 µM in the assay with 786-0 renal; 2.2 µM in the assay on ACHN renal; 1.62 µM with NCI/ADR-RES ovarian. Besides, the GI50 in the assay on U251 CNS was 4.33 µM; with NCI-H23 lung, 3.84 µM; with MOLT-4 leukemia, 0.339 µM; in the assay on SNB-75 CNS it was 4.18 µM. Moreover, the TGI in the assay with SF-268 CNS is over 79.6 µM; in the assay on TK-10 renal, over 43.9 µM; in the assay on 786-0 renal, over 49.9 µM; in the assay with ACHN renal, over 100 µM; with NCI/ADR-RES ovarian, over 53.7 µM; in the assay with U251 CNS, over 100 µM. In addition, the TGI in the assay with NCI-H23 lung was over 70.5 µM; in the assay with MOLT-4 leukemia it was 1.9 µM; in the assay on SNB-75 CNS, over 30.6 µM.

As for `O=C(O)C1CCN(Cc2oc(CO)cc(=O)c2O)C1` (stereo not drawn), the TGI with SF-268 CNS, with IGROV1 ovarian, with TK-10 renal, in the assay with 786-0 renal, in the assay with ACHN renal and in the assay on NCI/ADR-RES ovarian was over 100 µM each time. For the same compound, the TGI in the assay on U251 CNS, in the assay with NCI-H23 lung, with MOLT-4 leukemia and in the assay with SNB-75 CNS was over 100 µM each time.

Turning to `O=C1Nc2ccccc2/C1=C\c1cccc(/C=C2/C(=O)Nc3ccccc32)n1`, the GI50 in the assay with SF-268 CNS is 0.362 µM; in the assay on IGROV1 ovarian, 0.44 µM; with TK-10 renal, 0.416 µM; in the assay on 786-0 renal it was 1.08 µM; in the assay with ACHN renal, 0.308 µM; with NCI/ADR-RES ovarian, 0.689 µM. In addition, the GI50 with U251 CNS was 0.16 µM; in the assay on NCI-H23 lung it was 0.855 µM; in the assay with MOLT-4 leukemia, 0.509 µM; in the assay on SNB-75 CNS, 1.32 µM. In addition, the TGI stood at 1.39 µM with SF-268 CNS; 1.67 µM with IGROV1 ovarian; 1.41 µM in the assay with TK-10 renal; 2.49 µM with 786-0 renal; 1.12 µM with ACHN renal; 6.47 µM in the assay with NCI/ADR-RES ovarian. Moreover, the results for the TGI in the assay with U251 CNS, with NCI-H23 lung and in the assay with SNB-75 CNS were 0.346 µM, 2.43 µM and 3.46 µM, respectively.

In the case of `COC(NC(N)=O)C(=O)O` (stereo not drawn), the TGI with SF-268 CNS, with IGROV1 ovarian, in the assay on TK-10 renal, in the assay on 786-0 renal, in the assay with ACHN renal and in the assay on NCI/ADR-RES ovarian was over 100 µM throughout. Also, the TGI in the assay on U251 CNS, in the assay on NCI-H23 lung, in the assay with MOLT-4 leukemia and with SNB-75 CNS was over 100 µM each time.

Turning to `O=C(O)CNc1ccc(Cl)c(Cl)c1`, the TGI in the assay with SF-268 CNS was over 100 µM; with IGROV1 ovarian, 26.3 µM; in the assay with TK-10 renal it was 58.7 µM; in the assay on 786-0 renal it was 92.6 µM; with ACHN renal, 53 µM; with NCI/ADR-RES ovarian, 84.6 µM. For the same compound, the TGI is over 100 µM in the assay with U251 CNS, over 100 µM in the assay on NCI-H23 lung, over 100 µM in the assay on MOLT-4 leukemia and 94.1 µM in the assay on SNB-75 CNS.

`COc1cc(-c2nn(-c3cccc(NC(=O)NCCNS(=O)(=O)c4ccc(Cl)cc4)c3)cc2-c2ccncc2)ccc1Cl`: the GI50 in the assay on SF-268 CNS was 0.792 µM; in the assay on IGROV1 ovarian it was 1.18 µM; in the assay on TK-10 renal, 2.81 µM; with 786-0 renal it was 1.5 µM; in the assay on ACHN renal it was 2.69 µM; in the assay with NCI/ADR-RES ovarian it was 22.7 µM. Also, the GI50 with U251 CNS was 0.494 µM; in the assay with NCI-H23 lung it was 1.21 µM; with MOLT-4 leukemia, 1.03 µM; in the assay with SNB-75 CNS, 0.353 µM. Further, the TGI in the assay on SF-268 CNS was 4.39 µM; in the assay with IGROV1 ovarian, over 100 µM; in the assay on TK-10 renal it was 9.26 µM; in the assay with 786-0 renal, 5.78 µM; with ACHN renal, 11.8 µM; in the assay with NCI/ADR-RES ovarian it was over 100 µM. Also, the TGI is 2.09 µM in the assay with U251 CNS, 8.79 µM in the assay on NCI-H23 lung, over 100 µM in the assay with MOLT-4 leukemia and over 100 µM in the assay on SNB-75 CNS.
